# Experimental data reported in patent publication US12564631B2, “Phytosphingosine derivatives as adjuvants in immune stimulation” (Helmholtz-Zentrum für Infektionsforschung GmbH, priority 2020, dated 2026).
# What was measured:
# [1] = system: Antigen-specific multifunctional CD4+ T cells; experiment: Antigen-specific multifunctional T cells (intracellular cytokine staining, flow cytometry) in spleen cells of immunized mice; type: in vivo, BALB/c mice; settings: adjuvanted Ovalbumin, CD4+ and CD8+ T cell populations
# Method: FIG. 8: Antigen-specific multifunctional CD4+ T cells. (A) Groups of 3 BALB/c mice were immunized intramuscularly with PBS (control) or with three doses (14 days apart) of Ovalbumin (30 μg), alone or adjuvanted with c-di-AMP or aßGalCerMPEG or IPB 2033-2044 (15 μg). At 14 days after the second immunization, spleen cells were harvested, restimulated with Ovalbumin, intracellularly stained for double positive Th cytokines (IFN-γ, IL-2, TNF-α, IL-4 and IL-17), and analyzed by flow cytometry. […] At 14 days after the second immunization, spleen cells were harvested, restimulated with Ovalbumin, intracellularly stained for triple positive Th cytokines (IFN-γ, IL-2, TNF-α, IL-4 and IL-17), and analyzed by flow cytometry.
# In order to characterize more accurately the cellular immune response, the production of intracellular cytokines was measured in CD4+ and CD8+ T cells. […]
# Therefore, mice were immunized to assess the in vivo performance of CDA in an active vaccination setting. To assess vaccination effectivity, the frequencies of cytokine producers among the CD4+ and CD8+ T cell populations were evaluated by intracellular cytokine staining and flow cytometry. […] Thus, the frequency of T cells producing single cytokines or combinations (positive events/million) was analyzed by flow cytometry.
# [2] = Ebensen et al J. Immunol. 179 (2007) 2065; cited from earlier work
SMILES,"frequency of triple, double and single cytokine producers among T cells [1]",solubility [2]
"Nc1ncnc2c1ncn2[C@@H]1O[C@@H]2COP(=O)(O)O[C@H]3[C@@H](O)[C@H](n4cnc5c(N)ncnc54)O[C@@H]3COP(=O)(O)O[C@H]2[C@H]1O [CDA, c-di-AMP]","increased the frequency of triple, double and single cytokine producers",–
CCCCCCCCCCCCCCCCCCCCCCCCCC(=O)N[C@@H](CO[C@H]1O[C@H](CO)[C@H](O)[C@H](O)[C@H]1O)[C@H](O)[C@H](O)CCCCCCCCCCCCCC [KRN7000],–,low solubility
